Consider 48 molecules from ChEMBL document CHEMBL3611990, “Identification of Purines and 7-Deazapurines as Potent and Selective Type I Inhibitors of Troponin I-Interacting Kinase (TNNI3K)” (J Med Chem, 2015).

Each structure is given as a SMILES string.

Data set [1] addresses T1, Serine/threonine-protein kinase TNNI3K (Homo sapiens, UniProt Q59H18).
T1 sequence (Q59H18 whole entry): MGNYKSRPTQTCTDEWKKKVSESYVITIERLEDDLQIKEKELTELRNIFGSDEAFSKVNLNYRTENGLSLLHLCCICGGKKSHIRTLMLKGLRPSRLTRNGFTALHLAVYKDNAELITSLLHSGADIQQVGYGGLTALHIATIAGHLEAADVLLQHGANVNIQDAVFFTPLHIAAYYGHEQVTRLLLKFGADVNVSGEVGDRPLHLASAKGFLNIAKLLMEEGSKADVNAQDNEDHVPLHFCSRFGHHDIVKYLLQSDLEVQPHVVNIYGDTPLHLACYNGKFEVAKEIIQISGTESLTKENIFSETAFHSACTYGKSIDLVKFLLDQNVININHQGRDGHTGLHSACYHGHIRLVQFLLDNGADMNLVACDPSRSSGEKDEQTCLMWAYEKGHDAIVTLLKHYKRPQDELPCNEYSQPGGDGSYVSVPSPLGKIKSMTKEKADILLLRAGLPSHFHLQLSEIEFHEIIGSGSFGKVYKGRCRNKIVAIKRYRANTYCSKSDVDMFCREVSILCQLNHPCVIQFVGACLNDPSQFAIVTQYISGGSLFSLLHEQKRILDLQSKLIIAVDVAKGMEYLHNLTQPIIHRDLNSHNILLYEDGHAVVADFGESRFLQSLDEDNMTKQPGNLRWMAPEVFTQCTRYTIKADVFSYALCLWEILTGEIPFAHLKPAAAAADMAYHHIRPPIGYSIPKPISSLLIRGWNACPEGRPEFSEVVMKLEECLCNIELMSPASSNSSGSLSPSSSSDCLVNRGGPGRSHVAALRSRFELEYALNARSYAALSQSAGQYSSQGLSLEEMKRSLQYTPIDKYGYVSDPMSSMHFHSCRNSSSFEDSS
As to the kind of experiment: Displacement of 5-({[2-({[3-({4-[(5-hydroxy-2-methylphenyl)amino]-2-pyrimidinyl}amino)phenyl]carbonyl}amino)-ethyl]amino}carbonyl)-2-(6-hydroxy-3-oxo-3H-xanthen-9-yl)benzoic acid from His6-MBP-TEV-full length human TNNI3K expressed in Baculovirus expression system after 60 mins by fluorescence polarization assay.

Data set [2] deals with Serine/threonine-protein kinase B-raf (Homo sapiens, UniProt P15056, V600E). The data set can be described thus: Inhibition of His6-tagged full length BRAF V600E mutant (2 to 766 residues) (unknown origin) expressed in Baculovirus expression system by BRAMA method.
The test system of the next data set is Rattus norvegicus. The data set can be described thus: Dose normalized AUC in po dosed Sprague-Dawley rat by LC/MS/MS analysis. Type of data set: ADME, organism-based. To be noted: in vivo.
The target of data set [3] is T1, Serine/threonine-protein kinase TNNI3K. As to the kind of experiment: Inhibition of human myc-tagged TNNI3K autophosphorylation overexpressed in HEKMSRII cells preincubated for 30 mins followed by pervanadate solution addition measured after 20 mins by DELFIA. Type of data set: cell-based.

Serine/threonine-protein kinase B-raf, sequence (P15056 2-766 V600E limits assumed): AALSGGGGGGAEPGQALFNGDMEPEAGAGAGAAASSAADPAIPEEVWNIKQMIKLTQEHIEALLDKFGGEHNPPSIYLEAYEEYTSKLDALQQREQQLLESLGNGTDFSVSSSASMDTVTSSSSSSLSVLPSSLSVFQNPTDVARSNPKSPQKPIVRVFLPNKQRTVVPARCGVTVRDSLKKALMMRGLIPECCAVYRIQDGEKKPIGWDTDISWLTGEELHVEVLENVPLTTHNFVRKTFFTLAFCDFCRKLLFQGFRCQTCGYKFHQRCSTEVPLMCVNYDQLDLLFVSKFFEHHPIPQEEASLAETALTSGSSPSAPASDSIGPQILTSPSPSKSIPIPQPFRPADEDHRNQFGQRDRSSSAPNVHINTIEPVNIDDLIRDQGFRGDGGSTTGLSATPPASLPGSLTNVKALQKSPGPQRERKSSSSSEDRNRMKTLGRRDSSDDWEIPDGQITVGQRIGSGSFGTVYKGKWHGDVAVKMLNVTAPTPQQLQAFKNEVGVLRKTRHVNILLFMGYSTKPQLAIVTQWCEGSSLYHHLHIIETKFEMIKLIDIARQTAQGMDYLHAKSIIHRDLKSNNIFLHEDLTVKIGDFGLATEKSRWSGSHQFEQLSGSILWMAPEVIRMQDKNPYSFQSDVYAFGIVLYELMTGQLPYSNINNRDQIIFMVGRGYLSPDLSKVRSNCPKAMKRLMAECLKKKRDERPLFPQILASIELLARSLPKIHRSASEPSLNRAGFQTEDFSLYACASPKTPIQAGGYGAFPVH

As a reminder, the IC50 is the point on the concentration scale where inhibition reaches its midpoint. `CNS(=O)(=O)c1cccc(Nc2ncnc3c2ccn3C)c1`: the IC50 in data set [1] was > 25000 nM.

In data set [1], `CNS(=O)(=O)c1cccc(N(C)c2ncnc3[nH]ccc23)c1` displayed an IC50 of 5000 nM.

Take `CNS(=O)(=O)c1cccc(Nc2ncnc3[nH]cc(-c4ccccc4Cl)c23)c1`: the IC50 in data set [2] was 10 nM; in data set [1] it was 40 nM.

In turn, `NS(=O)(=O)c1cccc(Nc2ncnc3[nH]cnc23)c1` had an IC50 in data set [1] of 40000 nM.

Take `CNS(=O)(=O)c1cccc(Nc2ncnc3[nH]cc(CC(C)C)c23)c1`: the values for the concentration for half-maximal inhibition (IC50) in data set [2] and in data set [1] were 40 nM and 126 nM, respectively.

For `CNS(=O)(=O)c1cccc(Nc2ncnc3c2ncn3C)c1`, the IC50 in data set [1] is > 25000 nM.

As for `CNS(=O)(=O)c1ccc(N(C)C)c(Nc2ncnc3[nH]cc(Br)c23)c1`, the IC50 in data set [2] is 0.2 nM; in data set [1], < 10 nM; in data set [3] it was 0.7 nM. Further, the AUC/dose in the data set on Rattus norvegicus was found to be 0.04 kg·h/L.

As to `CNS(=O)(=O)c1cccc(Nc2ncnc3[nH]c4ccccc4c23)c1`, the values for the IC50 in data set [2] and in data set [1] were 40 nM and 100 nM, respectively. The AUC/dose with Rattus norvegicus came to 0.03 kg·h/L.

As to `CNS(=O)(=O)c1cccc(Nc2ncnc3[nH]c(-c4cccc(C(F)(F)F)c4)cc23)c1`, the IC50 in data set [2] came out at 6 nM; in data set [1], 63 nM. Moreover, in the data set with Rattus norvegicus, the AUC/dose amounted to 0.14 kg·h/L.

As for `CNS(=O)(=O)c1cccc(Nc2ncnc3[nH]cc(-c4ccc(CN)cc4)c23)c1`, the IC50 in data set [2] was 6 nM; in data set [1] it was 32 nM. Also, in the data set with Rattus norvegicus, the AUC/dose worked out at 0 kg·h/L.

In data set [1], `CNS(=O)(=O)c1cc(Nc2ncnc3[nH]cnc23)ccc1C` came in with an IC50 of 13000 nM.

For the molecule `CNS(=O)(=O)c1cccc(Nc2ncnc3[nH]c(C(=O)O)cc23)c1`, the IC50 in data set [2] came out at 40 nM; in data set [1] it was 160 nM.

As for `CNS(=O)(=O)c1ccc(N(C)C)c(Nc2ncnc3[nH]cc(C)c23)c1`, the IC50 was 0.5 nM in data set [2], < 10 nM in data set [1] and 1.6 nM in data set [3].

For the molecule `CNS(=O)(=O)c1cccc(Nc2ccnc3[nH]ccc23)c1`, the IC50 in data set [1] came out at 8000 nM.

For `CNc1ccc(S(=O)(=O)NC)cc1Nc1ncnc2[nH]ccc12`, the IC50 in data set [2] stood at 1000 nM; in data set [1] it was 6300 nM.

For `CNS(=O)(=O)c1cccc(Nc2ncnc3[nH]cc(C)c23)c1`, the results for the IC50 in data set [2] and in data set [1] were 63 nM and 40 nM, respectively. This molecule registered an AUC/dose in the data set with Rattus norvegicus of 0.18 kg·h/L.

As to `CNS(=O)(=O)c1ccc(C)c(Nc2ncnc3[nH]ccc23)c1`, in data set [1], the IC50 was found to be 630 nM.

Consider `CNS(=O)(=O)c1cccc(Nc2ncnc3[nH]c(-c4ccncc4)cc23)c1`, for which the IC50 in data set [2] was determined as 1 nM; in data set [1], 20 nM. The same molecule displayed an AUC/dose in the data set on Rattus norvegicus of 0 kg·h/L.

`CNS(=O)(=O)c1cccc(Nc2nc(F)nc3[nH]cnc23)c1` returned a concentration for half-maximal inhibition (IC50) in data set [1] of 3200 nM.

In data set [1], `CNS(=O)(=O)c1cccc(Nc2nc(N)nc3[nH]cnc23)c1` gave an IC50 of 8000 nM.

`CNS(=O)(=O)c1ccc(N2CCOCC2)c(Nc2ncnc3[nH]cc(Br)c23)c1`: the IC50 in data set [2] was 0.5 nM; in data set [1], < 10 nM; in data set [3], 6.3 nM. The molecule also registered an AUC/dose in the data set with Rattus norvegicus of 0.32 kg·h/L.

On to `CNS(=O)(=O)c1cccc(Nc2ncnc3[nH]c(-c4cccc(C)c4)cc23)c1`, for which the figures for the IC50 in data set [2] and in data set [1] were 1 nM and 13 nM, respectively. In the data set with Rattus norvegicus, this molecule displayed an AUC/dose of 0.01 kg·h/L.

As for `CNS(=O)(=O)c1cccc(Nc2ncnc3[nH]c(-c4ccccc4C)cc23)c1`, the half-maximal inhibitory concentration (IC50) is 6 nM in data set [2] and 13 nM in data set [1].

Take `CNS(=O)(=O)c1cccc(Nc2ncnc3[nH]c(-c4ccccc4)cc23)c1`: the results for the IC50 in data set [2] and in data set [1] were 1 nM and 25 nM, respectively. Moreover, the AUC/dose in the data set on Rattus norvegicus amounted to 0.01 kg·h/L.

As for `CNS(=O)(=O)c1ccc(N2CCOCC2)c(Nc2ncnc3[nH]c(Br)cc23)c1`, the half-inhibitory concentration (IC50) in data set [2] is 8 nM; in data set [1], 126 nM; in data set [3], 398 nM. The molecule also registered an AUC/dose with Rattus norvegicus of 0.09 kg·h/L.

`CNS(=O)(=O)c1cccc(Nc2ncnc3c2CC(=O)N3)c1` showed a half-inhibitory concentration (IC50) in data set [1] of 400 nM.

Consider `CNS(=O)(=O)c1cccc(Nc2ncnc3[nH]cc(-c4ccncc4)c23)c1`, for which the IC50 in data set [2] was determined as 32 nM; in data set [1], 100 nM. Further, the AUC/dose in the data set on Rattus norvegicus came out at 0 kg·h/L.

On to `CNS(=O)(=O)c1ccc(C)c(Nc2ncnc3[nH]cnc23)c1`, for which, in data set [1], the IC50 was 500 nM.

For the molecule `CNS(=O)(=O)c1cccc(Nc2ncnc3[nH]c(Br)cc23)c1`, the IC50 in data set [2] turned out to be 16 nM; in data set [1], 50 nM. The AUC/dose in the data set on Rattus norvegicus amounted to 0.26 kg·h/L.

For `CNS(=O)(=O)c1cccc(Nc2ncnc3[nH]c(-c4ccc(O)cc4)cc23)c1`, the results for the IC50 in data set [2] and in data set [1] were 1 nM and 13 nM, respectively.

Take `CNS(=O)(=O)c1ccc(N(C)C)c(Nc2ncnc3[nH]c(-c4cccc(C(F)(F)F)c4)cc23)c1`: the concentration for half-maximal inhibition (IC50) turned out to be 0.6 nM in data set [2], 13 nM in data set [1] and 16 nM in data set [3].

Regarding `CNS(=O)(=O)c1cccc(Nc2ncnc3[nH]cc(C(C)C)c23)c1`, the IC50 in data set [2] is 79 nM; in data set [1], 126 nM. The molecule also displayed an AUC/dose with Rattus norvegicus of 0.06 kg·h/L.

Take `CNS(=O)(=O)c1cccc(Nc2ncnc3[nH]cc(-c4ccc(OC)cc4)c23)c1`: the results for the IC50 in data set [2] and in data set [1] were 4 nM and 50 nM, respectively. This molecule yielded an AUC/dose in the data set on Rattus norvegicus of 0.06 kg·h/L.

Turning to `CNS(=O)(=O)c1ccc(N2CCOCC2)c(Nc2ncnc3[nH]cc(C)c23)c1`, the IC50 in data set [2] is 1.3 nM; in data set [1], 13 nM; in data set [3], 7.9 nM.

In the case of `CNS(=O)(=O)c1ccc(N(C)C)c(Nc2ncnc3[nH]c(Br)cc23)c1`, the IC50 came to 6.3 nM in data set [2], 40 nM in data set [1] and 40 nM in data set [3]. Moreover, in the data set with Rattus norvegicus, the AUC/dose was determined as 0.14 kg·h/L.

In turn, `O=S(=O)(NO)c1cccc(Nc2ncnc3[nH]cnc23)c1` showed an IC50 in data set [1] of 20000 nM.

Turning to `CNS(=O)(=O)c1ccc(Cl)c(Nc2ncnc3[nH]ccc23)c1`, the figures for the IC50 in data set [2] and in data set [1] were 32 nM and 20 nM, respectively.

On to `CNS(=O)(=O)c1ccc(N2CCOCC2)c(Nc2ncnc3[nH]c(-c4cccc(C(F)(F)F)c4)cc23)c1`, for which the values for the IC50 in data set [2], in data set [1] and in data set [3] were 1.3 nM, 16 nM and 10 nM, respectively.

Turning to `CNS(=O)(=O)c1cncc(Nc2ncnc3[nH]ccc23)c1`, the IC50 in data set [1] came out at 250 nM.

`CN(C)S(=O)(=O)c1cccc(Nc2ncnc3[nH]cnc23)c1` came in with an IC50 in data set [1] of 8000 nM.

`CNS(=O)(=O)c1cccc(Nc2ncnc3[nH]cc(F)c23)c1`: the values for the IC50 in data set [2] and in data set [1] were 79 nM and 126 nM, respectively. For the same molecule, the AUC/dose with Rattus norvegicus was determined as 0.28 kg·h/L.

`CCNS(=O)(=O)c1cccc(Nc2ncnc3[nH]cnc23)c1`: in data set [1], the IC50 came out at 2000 nM.

`CNS(=O)(=O)c1cccc(Nc2nc(Cl)nc3[nH]cnc23)c1`: in data set [1], the IC50 was found to be 16000 nM.

For `CNS(=O)(=O)c1cccc(Nc2ncnc3[nH]cc(-c4ccc(C(=O)O)cc4)c23)c1`, the IC50 is 16 nM in data set [2] and 100 nM in data set [1]. The AUC/dose with Rattus norvegicus came out at 0 kg·h/L.

Regarding `CNS(=O)(=O)c1cccc(Nc2ncnc3[nH]cc(-c4cccc(Cl)c4)c23)c1`, the half-inhibitory concentration (IC50) in data set [2] amounted to 1 nM; in data set [1], 63 nM.

As for `CNS(=O)(=O)c1cccc(Nc2ncnc3[nH]c(-c4ccc(C)cc4)cc23)c1`, the IC50 in data set [2] stood at 1 nM; in data set [1], 13 nM.

`CNS(=O)(=O)c1cccc(Oc2ncnc3[nH]ccc23)c1`: the IC50 in data set [1] was 16000 nM.

In turn, `CCS(=O)(=O)c1cccc(Nc2ncnc3[nH]cnc23)c1` had an IC50 in data set [1] of 6300 nM.
